Experimental data as given in the supplement of paper PMC8671470.
± gives the standard deviation of the averaged measurements.

How the values were obtained:
Conditions in all cases: 72 h
[1] = test system: K-562
Outline: (§1)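 Fifteen myeloid leukaemia lines were incubated for 72 h at 37 °C with 5% CO2 across five tenfold doses from 1 to 10,000 nM, in duplicate. ATP luminescence was normalised to vehicle and to a positive control at 10 µM and fitted with a four-parameter log-logistic model. The IC50 came from these dose–response fits.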

[2] = test system: KU-812
Outline: as §1

[3] = test system: MV4-11
Outline: as §1

[4] = test system: Mono-Mac-6
Outline: as §1

[5] = test system: NOMO-1
Outline: as §1

[6] = test system: HL-60; assay: cell viability (% survival relative to DMSO control); higher = less cytotoxic
Outline: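 HL-60 cells in RPMI 1640 with 10% FBS were rescreened against the full library on 384-well plates at five tenfold concentrations, 1–10,000 nM, in duplicate. Each screen was run with DMSO or 100 nM of one of three metabolic inhibitors, for 72 h at 37 °C, 5% CO2. Viability was read by CellTiter-Glo and normalised to DMSO and 10 μM proteasome-inhibitor wells. Where given, area under the curve came from four-parameter log-logistic fits (drc, PharmacoGx).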

[7] = test system: BV-173; assay: cell viability (% survival relative to DMSO control, bortezomib = 0%); higher = less cytotoxic
Outline: (§2)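 Percent survival figures are means of duplicate wells. They were obtained by CellTiter-Glo luminescence after 10 AML and 5 CML cell lines spent 72 h at 37 °C with 5% CO2 in 384-well plates with compounds at 1, 10, 100, 1000 or 10000 nM. Vehicle was set to 100% and a 10 µM positive control to 0%.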

[8] = test system: HEL; assay: as above
Outline: as §2

[9] = test system: HL-60; assay: as above
Outline: as §2

[10] = test system: K-562; assay: as above
Outline: as §2

[11] = test system: KCL-22; assay: as above
Outline: as §2

[12] = test system: KG-1; assay: as above
Outline: as §2

[13] = test system: KU-812; assay: as above
Outline: as §2

[14] = test system: LAMA-84; assay: as above
Outline: as §2

[15] = test system: ML-2; assay: as above
Outline: as §2

[16] = test system: MOLM-13; assay: as above
Outline: as §2

[17] = test system: MV4-11; assay: as above
Outline: as §2

[18] = test system: Mono-Mac-6; assay: as above
Outline: as §2

[19] = test system: NOMO-1; assay: as above
Outline: as §2

[20] = test system: SHI-1; assay: as above
Outline: as §2

[21] = test system: THP-1; assay: as above
Outline: as §2

CCCCC/C=C\C/C=C\C/C=C\C/C=C\CCCCN1C(=O)C=CC1=O [N-Arachidonylmaleimide]
Conditions | IC50 (cell viability) [µM]
[1] | > 10
[2] | > 10
[3] | > 10
[4] | > 10
[5] | > 10

cell viability [%], [6]
Conditions | 0.001 µM | 0.01 µM | 0.1 µM | 1 µM | 10 µM
co-treatment: AZD3965 100 nM | 98.7 ± 5.8 | 89.7 ± 24 | 98.58 ± 0.45 | 99.6 ± 8.7 | 101 ± 1.9
co-treatment: DMSO vehicle | 92.6 ± 2.7 | 95.4 ± 5.9 | 101.04 ± 0.026 | 101 ± 7.1 | 100.9 ± 0.64
co-treatment: GSK2194069 100 nM | 96.8 ± 12 | 84.8 ± 18 | 98.4 ± 4.1 | 100 ± 3.1 | 100.5 ± 0.71
co-treatment: pictilisib 100 nM | 96.4 ± 4.4 | 84.8 ± 1.7 | 97 ± 4.4 | 97.89 ± 0.76 | 103 ± 2.2

cell viability [%]
Conditions | 1 nM | 10 nM | 100 nM | 1000 nM | 10000 nM
[7] | 99.9 | 97.7 | 97.8 | 94.8 | 96.8
[8] | 98.7 | 102 | 97.9 | 103 | 89.7
[9] | 111 | 94.7 | 81.8 | 125 | 88.1
[10] | 103 | 91.5 | 93.4 | 110 | 90.6
[11] | 90.9 | 95.7 | 100 | 105 | 95
[12] | 98.9 | 97.9 | 101 | 93.1 | 103
[13] | 103 | 97.9 | 94.6 | 97.2 | 91.4
[14] | 96.8 | 99.9 | 98.4 | 97.7 | 96
[15] | 95.9 | 97.1 | 96.6 | 94.3 | 91
[16] | 98.8 | 109 | 101 | 110 | 88
[17] | 82.1 | 97.8 | 106 | 93.2 | 95.3
[18] | 94 | 101 | 91.1 | 107 | 101
[19] | 95.5 | 98.1 | 103 | 96.5 | 99.4
[20] | 100 | 102 | 96.7 | 104 | 88.9
[21] | 102 | 99.2 | 101 | 97.7 | 96.3

CCCc1cc(-c2nc(-c3ccc(C)cc3)cs2)ccn1 [Fatostatin]
Conditions | IC50 (cell viability) [µM]
[1] | > 10
[2] | > 10
[3] | > 10
[4] | > 10
[5] | > 10

cell viability [%], [6]
Conditions | 0.001 µM | 0.01 µM | 0.1 µM | 1 µM | 10 µM
co-treatment: AZD3965 100 nM | 75.1 ± 31 | 101.7 ± 0.39 | 102 ± 2.5 | 103 ± 7.9 | 79.9 ± 18
co-treatment: DMSO vehicle | 92.9 ± 9.1 | 96.1 ± 6.7 | 101 ± 4.4 | 98.5 ± 4.1 | 94.39 ± 0.83
co-treatment: GSK2194069 100 nM | 95.9 ± 4.6 | 94.22 ± 0.22 | 96.1 ± 8.5 | 92.5 ± 13 | 70.7 ± 7
co-treatment: pictilisib 100 nM | 90.3 ± 5.6 | 97.8 ± 3.4 | 105 ± 6.5 | 96.7 ± 17 | 63.5 ± 11

cell viability [%]
Conditions | 1 nM | 10 nM | 100 nM | 1000 nM | 10000 nM
[7] | 90.6 | 98.4 | 94.9 | 112 | 24.8
[8] | 92.6 | 97.8 | 92.1 | 108 | 90.4
[9] | 110 | 84.6 | 95.5 | 105 | 43.1
[10] | 103 | 95.9 | 102 | 117 | 60.2
[11] | 98.3 | 86.2 | 92.5 | 113 | 55.3
[12] | 102 | 99.8 | 106 | 90.3 | 23.1
[13] | 100 | 101 | 87.2 | 106 | 74.1
[14] | 105 | 92.2 | 104 | 109 | 79.8
[15] | 93.4 | 101 | 92 | 111 | 29.5
[16] | 89.2 | 78.1 | 106 | 108 | 104
[17] | 105 | 95.9 | 93.2 | 98.2 | 65.7
[18] | 94.5 | 97.3 | 101 | 111 | 87.8
[19] | 98.3 | 91.3 | 104 | 111 | 97.4
[20] | 106 | 91.7 | 105 | 114 | 14.4
[21] | 95.2 | 90.1 | 108 | 98.5 | 81.1
